Read-outs that look alike come from different tables or passages of the source.
What was measured:
[1] = Attempt to dissolve pure CBD in beverages; assay type: physicochemical; details: 2.7 mg in 25 ml of beverage
Experimental: Samples of still water (Mei Eden bottled water), carbonated water (made by Tempo Soda), alcoholic lager beer (Carlsberg) and orange juice (made by Primor) were prepared using each of CBD-Whey and Whey only. 25 ml of beverage was prepared for each sample, and 45 mg of CBD-Whey (which contains 2.7 mg of CBD). […] The study continued with comparison of CBD-Whey and Whey only. Volunteers, who were Cannabis naïve, were given 8 samples, in a randomized order and were asked to fill a questionnaire relating to appearance, taste and smell of samples. Evaluations were performed by 6 volunteers for each of the 8 samples (four beverages with CBD-Whey and four beverages with Whey only.)

[2] = THC in plasma, intravenously, 5 mg/kg single dose
[3] = male, Sprague-Dawley, rat, plasma, iv, 5 mg/kg

Row | SMILES | dissolution in beverages [1] | AUC0−∞/D [2] | CL/F [2] | Cmax/D [2] | F (THC, intravenously, 5 mg/kg single dose (reference)) | AUC(0-inf) [3] | AUC(0-t) [3] | Cmax [3] | Tmax [3] | half-life (male, Sprague-Dawley, rat, plasma, iv, 5 mg/kg, t1/2, THC in plasma, intravenously, 5 mg/kg single dose) | half-life (male, Sprague-Dawley, rat, plasma, iv, 5 mg/kg, terminal t1/2, after IV administration, analysis that included the 24 hr time point)
1 | C=C(C)[C@@H]1CCC(C)=C[C@H]1c1c(O)cc(CCCCC)cc1O [CBD, cannabidiol] | crystalline CBD was visible |  |  |  |  |  |  |  |  |  | 
2 | CCCCCc1cc(O)c2c(c1)OC(C)(C)[C@@H]1CCC(C)=C[C@@H]21 [IV, tetrahydrocannabinol] |  | 121 kg·ng·h/mL/mg | 137.2 mL/min/kg | 202 kg·ng/mL/mg | 100% | 607 ng·h/mL | 575 ng·h/mL | 1010 ng/mL | 5 min | 10.8 h | ~10 h
